For data set [1], the system named is HCT116 cells. The data set can be described thus: Plasmid (pCDNA3.1-RFP) transfection, fluorescence microscopy and flow cytometry. Format: cell-based. Particulars: 40 µM peptide, 1 µg plasmid DNA; for RFP fluorescence of cells treated with peptide-pCDNA3.1-RFP complex: 48 h post-transfection, fluorescence microscope. As for the experimental part:
(§1) The linking of DNA with CVP1 was made by the charge interaction. To confirm the formation of the peptide and plasmid complexes, the CVP1 peptide (5 μM) and plasmid DNA (200 ng) were diluted in 10 µL Opti-MEM and co-incubated at 37 °C for 45 min, and then agarose gel retardation assay was performed as described previously. The transfection experiment was conducted to test the transfection efficiency of CVP1-DNA on HCT116 cells as described previously. Briefly, 1 μg of plasmid DNA and 40 µM of CVP1 peptide or TAT peptide were diluted in 50 µL Opti-MEM, respectively and incubated at RT for 30 min. The lipofectamine 2000 (Invitrogen, USA) was used as a positive control, following the manual provided by the manufacture. […] Meanwhile, the fluorescence intensity was measured by Flow cytometry as described previously.

Data set [2] has as its system HCT116 cells. The data set can be described thus: β-galactosidase delivery, X-gal staining. Format: cell-based. Particulars: 20 µM peptide non-covalently complexed with 1 µg β-galactosidase, 1 h + 90 min at 37 °C, phase-contrast microscopy. As for the experimental part: Protein delivery ability of CVP1 was assessed using β-galactosidase enzyme as previously described. In brief, CVP1 and Mut-CVP1 at a concentration of 20 µM were non-covalently complexed with β-galactosidase (1 µL, 1 µg/µL) enzyme respectively. The mixtures were incubated for 30 min at room temperature (RT) for complex formation. The peptide-enzyme complex was added to the HCT116 cells with Opti-MEM media (100 µL) and the cells were incubated for 1 h at 37 °C. After incubation, complete media (150 µL) was added to the cells, and further incubated for 90 min at 37 °C. The cells were washed thoroughly with PBS to remove extracellular peptide-enzyme complex and fixed in PBS containing 1% formaldehyde and 0.2% glutaraldehyde for 15 min at RT. The cells were washed subsequently three times with PBS and stained with X-gal staining buffer (40 mM potassium ferricyanide, 40 mM potassium ferrocyanide, 20 mM magnesium chloride, 2 mg/mL of X-gal in PBS) for 90 min at 37 °C. Finally, the cells were analyzed under a phase-contrast microscope (Olympus) at 200× magnification and imaged.

Data set [3] concerns HCT116 cells. The data set can be described thus: Flow cytometry of cellular uptake of FITC-labeled peptides. Particulars: for mean percent of relative internalization: 10 000 events, three experiments in triplicate (Figure 3D). Format: cell-based. As for the experimental part: The comparison of cell-penetrating efficiency of peptides in HCT116 cells was tested by incubating the cells with CVP1 or TAT peptides. […] The cells were washed twice by centrifugation and finally resuspended in 400 µL PBS for assaying of cellular fluorescent intensity by flow cytometry (BD FACSAria SORP, Becton–Dickinson, USA). A total of 10 000 events were recorded. Data was obtained and analyzed using Flowjo software.

In data set [4] the test system is HCT116 cells. The note with it: 5 µM FITC-labeled peptide, 30 min, 37 °C, serum-free medium, confocal microscopy. As for the experimental part:
(§2) 293T cells, HCT-116 cells, 3T3 cells, MDCK cells and MSB1 cells were maintained in our laboratory and were grown in Dulbecco’s modified Eagle’s medium supplemented with 10% heated-inactivated fetal bovine serum (FBS) and 1% penicillin–streptomycin solution at 37 °C and 5% CO2.
(§3) Firstly, 2.0 × 10^5 of 293T cells, HCT-116 cells, 3T3 cells or MDCK cells were seeded onto glass cover slides in 24-well plates and cultured for 12 h. The cells were then washed with phosphate buffered saline (PBS) and incubated with 5 µM of FITC-labeled CVP1, TAT and Mut-CVP1 peptides in 500 µL serum-free medium for 30 min. The concentration-dependent intake of CVP1 peptide in HCT-116 cells was then evaluated. In brief, after incubation of cells with FITC-CVP1 peptide for 30 min, cells were washed for three times and stained with Hoechst 33342 (5 µg/mL) for 10 min. Finally, cells were washed three times with PBS and imaged using confocal laser scanning microscope (Leica, TCS SP8 STED and Germany) at 60× magnification.

The subject of a further data set is furin. The note with it: motif (RKKR and RQRR) in the TAT sequence; cited from earlier work. From the text: Generally, CPPs are composed of 5–30 amino acids (aa) with enriched lysine or arginine residues, and divided into three classes including amphipathic CPP, cationic CPP and hydrophobic CPP [2, 3]. […] As the pioneer of CPPs, HIV-TAT with 86 amino acids plays vital roles in the replication of HIV. It wa ...

The next data set relates to poly (I:C). The data set can be described thus: Gel retardation electrophoresis of peptide-poly (I:C) complex. Format: binding. The note with it: 10 µM peptide, 5 µg poly (I:C), 45 min 37 °C.
The test system of data set [5] is HCT116 cells. Particulars: up to 40 µM (5, 10, 20, 40 µM), 12, 24 and 48 h (Figure 3C). As for the experimental part:
Effect of CVP1 on the viability of cells was evaluated by MTT assay as described previously.

The subject of the next data set is pCDNA3.1-RFP plasmid. Kind of data set: Agarose gel retardation (gel-shift) assay of peptide-plasmid complex. Format: binding. Particulars: 5 µM peptide, 200 ng plasmid DNA, 37 °C 45 min, ethidium bromide. As for the experimental part:
as §1

Another data set relates to HD11 cells. The data set can be described thus: Poly (I:C) delivery, IFN-β mRNA by real-time PCR. Particulars: 10 µM peptide, 5 µg poly (I:C), 6 h. Format: cell-based. As for the experimental part:
To analyze the ability of CVP1 to delivery poly(I;C), the CVP1 (10 µM) was first mixed with the poly (I:C) (5 µg) for 45 min at 37 °C for generating the complex. And then, the HD11 cells were incubated with peptide-poly (I:C) complexes, peptide (10 µM) only or poly (I:C) (5 µg) with transfecting reagent. After 6 h of incubation, the cells were collected and total RNA extracted using total RNA purification kit (Axygen, USA). 1 µg of RNA was reverse transcribed into cDNA with a reverse transcription reagent kit (Takara, Japan). The relative mRNA level of IFN-β was detected by Real-time PCR.
For orientation: In qPCR the cycle at which signal appears reflects the starting amount.

The subject of the next data set is 293T cells. Particulars: 5 µM FITC-labeled peptide, 30 min, 37 °C, serum-free medium, confocal microscopy. As for the experimental part: as §2, §3
The subject of a further data set is 3T3 cells. The note with it: 5 µM FITC-labeled peptide, 30 min, 37 °C, serum-free medium, confocal microscopy. As for the experimental part: as §2, §3
For another data set, the system named is MDCK cells. Particulars: 5 µM FITC-labeled peptide, 30 min, 37 °C, serum-free medium, confocal microscopy. As for the experimental part:
as §2, §3

The subject of data set [6] is HCT116 cells. Kind of data set: Cell internalization pathway: endocytosis inhibitors and temperature, flow cytometry. Format: cell-based. As for the experimental part: The mechanism of uptake of CVP1 in HCT116 cells was investigated by means of physical and chemical inhibition of endocytosis. Incubation of peptide and cells at 37 or 4 °C were treated to measure the influence of temperature on peptide internalization (used as a physical means of inhibition of endocytosis). HCT116 cells cultured in 12-well plates were pretreated for 30 min with inhibitors: 30 µM chlorpromazine (a clathrin-mediated endocytosis inhibitor, which prevents the assembly of clathrin-coated pits at the inner surface of the cell membrane), 5 mM methylated-β-cyclodextrin (a caveolae-mediated endocytosis inhibitor, a cholesterol depletion agent), 10 µM 5-(N-ethyl-N-isopropyl) amilorid (a macropinocytosis inhibitor, which selectively blocks the Na^+/H^+ antiporter) and 50 µM LY294002 (a macropinocytosis inhibitor, a strong phosphatidylinositol-3 kinase inhibitor) as previously described. The cells were further incubated with the peptide for 50 min and then analyzed by flow cytometry. To investigate the effect of incubation time, the HCT116 cells were incubated with CVP1 at 37 °C for different time periods.
Background: In flow cytometry, cells or beads pass a laser one at a time.

Where [7] appears, read: HCT116 cells, 0.1 µM FITC-labeled peptide, flow cytometry after trypsin 5 min to remove non-internalized peptide.
The mark [8] stands for this setting: HCT116 cells, 1 µM FITC-labeled peptide, flow cytometry after trypsin 5 min.
[9] abbreviates: HCT116 cells, 2 µM FITC-labeled peptide, flow cytometry after trypsin 5 min.
The mark [10] stands for this setting: HCT116 cells, 5 µM FITC-labeled peptide, flow cytometry after trypsin 5 min.
Where [11] appears, read: HCT116 cells, 10 µM FITC-labeled peptide, flow cytometry after trypsin 5 min.

“Also recorded” adds a separate entry of the source. No end group written: not given here. *: point of attachment. FITC = O=C1OC2(c3ccc(O)cc3Oc3cc(O)ccc32)c2ccc(NC(=S)*)cc21

Consider {FITC}-MAAGAGAPAGAFYAFGAGA [Mut-CVP1], for which, in the data set with HCT116 cells [1], the “RFP fluorescence of cells treated with peptide-pCDNA3.1-RFP complex” value is recorded as “no fluorescence”. Besides, in the data set on HCT116 cells [2], the “X-gal staining of cells treated with peptide-β-galactosidase complex” value is recorded as “very weak blue background”. Moreover, in the data set with HCT116 cells [3] (HCT116 cells, FITC-labeled peptide, confocal imaging and flow cytometry), the “cell-penetrating activity (overall)” value was “did not show any cell-penetrating activity”. The “specific green fluorescence dots in cells (internalization)” value in the data set on HCT116 cells [4] was “not”.

Regarding “FITC-YGRKKRRQRRR [TAT, reference compound]”, the stability toward furin entry in the data set on furin is listed as “cleaved by furin”. For the same substance, the “mean percent of relative internalization” value with HCT116 cells [3] (setting [7]) was 0.1%; in the data set with HCT116 cells [3] (setting [8]), 0.4%; in the data set on HCT116 cells [3] (setting [9]), 1.7%; with HCT116 cells [3] (setting [10]) it was 25%; with HCT116 cells [3] (setting [11]), 61%.

On to “{FITC}-MARRARRPRGRFYAFRRGR [CVP1, N terminus (aa 1–19) of VP1 from chicken anemia virus, FITC-labeled cell-penetrating peptide]”, for which, in the data set on HCT116 cells [1] (48 h, flow cytometry, comparators TAT peptide, lipofectamine 2000), the “efficacy of delivering plasmid, comparison with other carriers” value is reported as “significantly higher signal of fluorescence than the TAT/RFP sample; also recorded: not as equal as commercial transfection reagents”. The “RFP fluorescence of cells treated with peptide-pCDNA3.1-RFP complex” value in the data set on HCT116 cells [1] is on record as “strong fluorescence”. Further, the “X-gal staining of cells treated with peptide-β-galactosidase complex” value in the data set on HCT116 cells [2] is “strong blue color”. The “complex formation with poly (I:C)” value in the data set with poly (I:C) is “could conjugate with the poly (I:C) to form a complex”. Further, the “toxicity to cells (cell viability, MTT)” value in the data set with HCT116 cells [5] is listed as “non-toxic”. Besides, the “mean percent of relative internalization” value came to 0.1% in the data set with HCT116 cells [3] (setting [7]); 2.1% in the data set with HCT116 cells [3] (setting [8]); 18.7% in the data set with HCT116 cells [3] (setting [9]); 86% in the data set on HCT116 cells [3] (setting [10]); 98% with HCT116 cells [3] (setting [11]). Moreover, the “intensity of fluorescence in cells versus incubation time” value in the data set on HCT116 cells [3] (HCT116 cells, 5 µM peptide, 5, 10, 15, 20, 25, 30 min, flow cytometry (Figure 3B)) was “increased as the incubation time was increased from 5 to 30 min”. In addition, the “cell-penetrating efficiency versus concentration” value with HCT116 cells [3] (HCT116 cells, 1, 2, 5, 10, 20, 40 µM, 30 min, 37 °C, flow cytometry (Figure 3A)) is reported as “dose-dependent”. The “migration of plasmid conjugated with peptide (DNA binding capacity)” value in the data set on pCDNA3.1-RFP plasmid is reported as “much lower migration speed than naked plasmid”. For the same substance, the “capacity of delivering poly (I:C), comparison with other carriers” value with HD11 cells (IFN-β mRNA by real-time PCR, comparators TAT, transfection reagent) was “higher than the TAT; also recorded: not as equal as commercial transfection reagents”. For the same substance, the “IFN-β mRNA expression of cells treated with peptide/poly (I:C) complexes versus naked peptide or poly (I:C) only” value in the data set with HD11 cells (real-time PCR) was “significantly increased”. The “specific green fluorescence dots in cells (internalization)” value with 293T cells, with 3T3 cells, in the data set on HCT116 cells [4] and with MDCK cells was “clearly observed” each time. Also, in the data set on HCT116 cells [6] (HCT116 cells pretreated 30 min with 10 µM 5-(N-ethyl-N-isopropyl) amiloride (macropinocytosis inhibitor), then peptide 50 min), the “effect of EIPA on cellular intake of the peptide” value is listed as “unable to inhibit”. Moreover, the “effect of CPZ on cellular intake of the peptide” value in the data set with HCT116 cells [6] (HCT116 cells pretreated 30 min with 30 µM chlorpromazine (clathrin-mediated endocytosis inhibitor), then peptide 50 min) is recorded as “unable to inhibit”. In addition, the “effect of LY294002 on cellular intake of the peptide” value with HCT116 cells [6] (HCT116 cells pretreated 30 min with 50 µM LY294002 (macropinocytosis inhibitor), then peptide 50 min) was “only slightly blocked”. The “effect of MβCD on cellular intake of the peptide” value in the data set on HCT116 cells [6] (HCT116 cells pretreated 30 min with 5 mM methylated-β-cyclodextrin (caveolae-mediated endocytosis inhibitor), then peptide 50 min) is reported as “significantly reduced”. Besides, the “cell-penetrating activity at 4 °C” value in the data set with HCT116 cells [6] (HCT116 cells, 10 µM peptide, 4 °C compared with 37 °C) is “efficiently inhibited”.

The record behind these values is PMC5812233, “A novel CAV derived cell-penetrating peptide efficiently delivers exogenous molecules through caveolae-mediated endocytosis” (Veterinary Research, 2018).
